We go through 53 compounds from patent US12528816B2, “Substituted imidazo [1,2-b] pyridazines and [1, 2, 4] triazolo [ 4,3-b] pyridazines as camkii inhibitors” (Cardurion Pharmaceuticals, INC., priority 2020, dated 2026).

The assay addresses T1, human CaMKIIδ (Homo sapiens, UniProt Q13557).
T1 construct: Full-length, glutathione-S-transferase(GST)-tagged, human CaMKIIδ was purchased from Carna Biosciences; purchased Carna Biosciences (CaMKIIδ); Wako Pure Chemical Industries (calmodulin) 02-111
The assay is described as follows: Evaluation of in vitro CaMKII inhibitory activity (binding assay, TR-FRET). In outline: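 Inhibitors, in eight concentrations of 4-fold dilution, were incubated 1 h at room temperature with a protein–fluorescent probe premix preformed 30 min on ice, containing calmodulin and terbium anti-GST antibody. Displacement read by TR-FRET in duplicate; IC50 by logistic fitting.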
A general note: Time-resolved FRET reads energy transfer from a long-lived donor to a nearby acceptor.

[1] abbreviates: human CaMKIIδ, TR-FRET binding assay, class symbols A/B/C, read-out: Act (CaMKII inhibitory activity, binding assay).
[2] abbreviates: in vitro CaMKII inhibitory activity (binding assay), human CaMKIIδ, read-out: Act.

Molecules are shown by their SMILES. Where two headings read alike, the source gives them in different places.

For `C[C@@H](Cn1cnnn1)Oc1cc(-c2ccn3ncc(-c4cccs4)c3n2)ccc1F` [compound 3], the IC50 under setting [1] was under 10 nM.

`C[C@@H](Cn1cnnn1)Oc1cc(-c2ccc3ncc(-c4cc(C#N)c[nH]c4=O)n3n2)ccc1F` [compound 220]: under setting [1], the IC50 was under 10 nM.

On to `C[C@@H](Cn1cnnn1)Oc1cc(-c2ccn3ncc(-c4ccc(C#N)s4)c3n2)ccc1F` [compound 139], for which, under setting [1], the IC50 was under 10 nM.

On to `CCN(CC)CCCNC(=O)c1cccc(-c2cnn3ccc(-c4cccc(O[C@@H](C)Cn5cnnn5)c4)nc23)c1` [compound 69], for which, under setting [1], the IC50 was under 10 nM.

For `C[C@@H](Cn1cnnn1)Oc1cc(-c2ccn3ncc(-c4ccccc4N4CCNCC4)c3n2)ccc1F` [compound 55], the IC50 under setting [1] was over 100 nM.

Consider `C[C@@H](Cn1cnnn1)Oc1cccc(-c2ccn3ncc(-c4cccc(C(=O)Nc5cccnc5)c4)c3n2)c1` [compound 84], for which the IC50 under setting [1] is under 10 nM.

With `COc1ncc(F)cc1-c1cnc2ccc(-c3cccc(O[C@@H](C)Cn4cnnn4)c3)nn12` [compound 315], the IC50 under setting [2] is under 10 nM.

Turning to `COc1ncccc1-n1cnc2ccc(-c3ccc(F)c(O[C@@H](C)Cn4cnnn4)c3)nc21` [compound 174], under setting [1], the IC50 is 10 to 100 nM.

Take `CNC(=O)c1ccnc(-n2cnc3ccc(-c4ccc(F)c(O[C@@H](C)Cn5cnnn5)c4)nc32)c1` [compound 116]: under setting [1], the IC50 is under 10 nM.

Take `C[C@@H](Cn1cnnn1)Oc1cc(-c2ccn3ncc(-c4cccc(C(=O)N5CCC(N6CCOCC6)CC5)c4)c3n2)ccc1F` [compound 10]: the IC50 under setting [1] was under 10 nM.

Take `COc1ccnc(-c2cnn3ccc(-c4ccc(F)c(O[C@@H](C)Cn5cnnn5)c4)nc23)c1C#N` [compound 437]: the IC50 under setting [2] was under 10 nM.

With `C[C@@H](Cn1cnnn1)Oc1cccc(-c2ccc3ncc(-c4nnccc4C#N)n3n2)c1` [compound 280], under setting [2], the IC50 was under 10 nM.

`C[C@@H](Cn1cnnn1)Oc1cccc(-c2ccc3ncc(-c4ccccc4C#N)n3n2)n1` [compound 425, 2-[6-(6-{[(2S)-1-(1H-tetrazol-1-yl)propan-2-yl]oxy}pyridin-2-yl)imidazo[1,2-b]pyridazin-3-yl]benzonitrile]: under setting [2], the IC50 is under 10 nM.

For `C[C@@H](Cn1cnnn1)Oc1cc(-c2ccc3ncn(-c4ncn(C)c4C#N)c3n2)ccc1F` [Example 173, 4-[5-(4-fluoro-3-{[(2S)-1-(1H-tetrazol-1-yl)propan-2-yl]oxy}phenyl)-3H-imidazo[4,5-b]pyridin-3-yl]-1-methyl-1H-imidazole-5-carbonitrile], the IC50 under setting [1] is under 10 nM.

Turning to `C[C@@H](Cn1cnnn1)Oc1cccc(-c2ccc3ncc(-c4nccc(N(C)CC(F)F)c4C#N)n3n2)c1` [compound 376], the IC50 under setting [2] lay in the range of 10 to 100 nM.

As for `COC(=O)c1cccc(-c2cnn3ccc(-c4ccc(C#N)c(O[C@@H](C)Cn5cnnn5)c4)nc23)c1` [compound 2, methyl 3-[5-(4-cyano-3-{[(2S)-1-(1H-tetrazol-1-yl)propan-2-yl]oxy}phenyl)pyrazolo[1,5-a]pyrimidin-3-yl]benzoate], under setting [1], the IC50 is over 100 nM.

Turning to `C[C@@H](Cn1cnnn1)Oc1cc(-c2ccc3ncc(-c4cc(C(N)=O)ccc4C(N)=O)n3n2)ccc1F` [compound 184], the IC50 under setting [1] is over 100 nM.

Turning to `C[C@@H](Cn1cnnn1)Oc1cccc(-c2ccc3ncc(-c4c(F)ccc(F)c4C#N)n3n2)n1` [compound 423], the IC50 under setting [2] was under 10 nM.

Take `COc1ncc(F)cc1-c1cnc2ccc(-c3ccc(F)c(O[C@@H](C)Cn4cnnn4)c3)nn12` [compound 270]: the IC50 under setting [2] is under 10 nM.

`C[C@@H](Cn1cnnn1)Oc1cc(-c2ccn3ncc(-c4cc(F)ccc4C#N)c3n2)ccn1` [compound 319]: the IC50 under setting [2] was under 10 nM.

Take `C[C@@H](Cn1cnnn1)Oc1cc(-c2ccn3ncc(-c4cccc(F)c4)c3n2)ccc1F` [compound 50]: the IC50 under setting [1] was under 10 nM.

In the case of `C[C@@H](Cn1cncn1)Oc1cc(-c2ccn3ncc(-c4cc(F)ccc4C#N)c3n2)ccn1` [compound 286], the IC50 is under 10 nM.

For `C[C@@H](Cn1cnnn1)Oc1cccc(-c2ccc3ncc(-c4cc(=O)[nH]cc4C#N)n3n2)n1` [compound 464], the IC50 under setting [2] is under 10 nM.

On to `[2H]C([2H])([2H])Oc1cc(F)cc(-n2cnc3ccc(-c4cccc(O[C@@H](C)Cn5cnnn5)n4)nc32)c1C#N` [Example 474, 4-fluoro-2-(methoxy-d3)-6-[5-(6-{[(2S)-1-(1H-tetrazol-1-yl)propan-2-yl]oxy}pyridin-2-yl)-3H-imidazo[4,5-b]pyridin-3-yl]benzonitrile], for which the IC50 under setting [1] is under 10 nM.

`COCCCNC(=O)Cn1cc(-c2cnc3ccc(-c4ccc(F)c(O[C@@H](C)Cn5cnnn5)c4)nn23)c(C#N)n1` [compound 126]: the IC50 under setting [1] is over 100 nM.

As to `C[C@@H](Cn1cnnn1)Oc1cccc(-c2ccc3ncc(-c4cc(Cl)cn(C)c4=O)n3n2)c1` [compound 334], the IC50 under setting [2] is under 10 nM.

For `COCCCn1ncc(-c2cnc3ccc(-c4ccc(F)c(O[C@@H](C)Cn5cnnn5)c4)nn23)c1C(=O)N(C)C` [compound 236], the IC50 under setting [2] was over 100 nM.

Consider `C[C@@H](Cn1cnnn1)Oc1cccc(-c2ccc3ncc(-c4nccc(NCC(F)F)c4C#N)n3n2)c1` [compound 367], for which the IC50 under setting [2] was in the range of 10 to 100 nM.

`CNC(=O)c1ccccc1-c1cnn2ccc(-c3ccc(F)c(O[C@@H](C)Cn4cnnn4)c3)nc12` [compound 34]: the IC50 under setting [1] is over 100 nM.

Take `C[C@@H](Cn1cnnn1)Oc1cccc(-c2ccc3ncc(-c4nccc(N5CCCC5)c4C#N)n3n2)c1` [compound 363]: the IC50 under setting [2] is 10 to 100 nM.

Consider `C#Cc1ccccc1-c1cnc2ccc(-c3ccc(F)c(O[C@@H](C)Cn4cnnn4)c3)nn12` [compound 183], for which, under setting [1], the IC50 is under 10 nM.

On to `C[C@@H](Cn1cnnn1)Oc1cccc(-c2ccc3ncc(-c4nc(C(F)(F)F)ccc4C#N)n3n2)c1` [compound 349], for which the IC50 under setting [2] was in the range of 10 to 100 nM.

Turning to `COC(=O)c1cccc(-c2cnn3ccc(-c4ccc(F)c(O[C@@H](C)Cn5cnnn5)c4)nc23)c1` [compound 6], under setting [1], the IC50 was under 10 nM.

For the compound `C[C@@H](Cn1cnnn1)Oc1cc(-c2ccn3ncc(-c4cccc(C#N)c4)c3n2)ccc1F` [compound 29], the IC50 under setting [1] is under 10 nM.

Regarding `CC(=O)NCCCOc1cccc(-c2cnc3ccc(-c4ccc(F)c(O[C@@H](C)Cn5cnnn5)c4)nn23)c1C#N` [compound 204], the IC50 under setting [1] is under 10 nM.

As for `C[C@@H](Cn1cnnn1)Oc1cc(-c2ccc3ncc(-c4nccc(NC(=O)OC(C)(C)C)c4C#N)n3n2)ccc1F` [compound 231], under setting [2], the IC50 was under 10 nM.

As to `Cc1c(-c2cnn3ccc(-c4ccc(F)c(O[C@@H](C)Cn5cnnn5)c4)nc23)cnn1C` [compound 143], the IC50 under setting [1] was under 10 nM.

For `COC1CN(C(=O)c2cccc(-n3cnc4ccc(-c5ccc(F)c(O[C@@H](C)Cn6cnnn6)c5)nc43)c2C#N)C1` [compound 229, 2-[5-(4-fluoro-3-{[(2S)-1-(1H-tetrazol-1-yl)propan-2-yl]oxy}phenyl)-3H-imidazo[4,5-b]pyridin-3-yl]-6-(3-methoxyazetidine-1-carbonyl)benzonitrile], under setting [1], the IC50 lay in the range of 10 to 100 nM.

Regarding `COc1cc(F)cc(-c2cnc3ccc(-c4cncc(O[C@@H](C)Cn5cncn5)n4)nn23)c1C#N` [compound 443], the IC50 under setting [2] was under 10 nM.

Regarding `CNc1ccnc(-c2cnc3ccc(-c4cccc(O[C@@H](C)Cn5cnnn5)c4)nn23)c1C#N` [Example 358, 4-(methylamino)-2-[6-(3-{[(2S)-1-(1H-tetrazol-1-yl)propan-2-yl]oxy}phenyl)imidazo[1,2-b]pyridazin-3-yl]pyridine-3-carbonitrile], the IC50 under setting [2] is under 10 nM.

As for `Cc1cnc(C#N)c(-c2cnc3ccc(-c4cccc(O[C@@H](C)Cn5cnnn5)c4)nn23)n1` [compound 277], under setting [2], the IC50 is under 10 nM.

For `C[C@@H](Cn1cnnn1)Oc1cccc(-c2ccc3ncc(-c4cncnc4C#N)n3n2)c1` [Example 267, 5-[6-(3-{[(2S)-1-(1H-tetrazol-1-yl)propan-2-yl]oxy}phenyl)imidazo[1,2-b]pyridazin-3-yl]pyrimidine-4-carbonitrile], the IC50 under setting [2] was under 10 nM.

As for `C[C@@H](Cn1cnnn1)Oc1cc(-c2ccc3ncc(-c4cc(=O)[nH]cc4C#N)n3n2)ccc1F` [compound 241], the IC50 under setting [2] is under 10 nM.

With `C[C@@H](Cn1cnnn1)Oc1cccc(-c2ccn3ncc(-c4cccc(C(=O)NCCn5ccnc5)c4)c3n2)c1` [compound 95], under setting [1], the IC50 is under 10 nM.

For `CCN(CC)CCNC(=O)c1cccc(-c2cnn3ccc(-c4cccc(O[C@@H](C)Cn5cnnn5)c4)nc23)c1` [compound 103], the IC50 under setting [1] was under 10 nM.

In the case of `COCCOc1ccc(-c2cnn3ccc(-c4ccc(F)c(O[C@@H](C)Cn5cnnn5)c4)nc23)cc1` [compound 44], the IC50 under setting [1] lay in the range of 10 to 100 nM.

Consider `CCOc1nccc(-c2cnc3ccc(-c4cccc(O[C@@H](C)Cn5cnnn5)c4)nn23)c1C#N` [compound 261], for which the IC50 under setting [2] is under 10 nM.

As to `C[C@@H](Cn1cnnn1)Oc1cccc(-c2ccc3ncn(-c4cc(F)cc(OC(F)F)c4C#N)c3n2)n1` [compound 405], the IC50 under setting [2] was under 10 nM.

Turning to `COCc1cc(F)cc(-c2cnc3ccc(-c4cccc(O[C@@H](C)Cn5cnnn5)n4)nn23)c1C#N` [compound 462], under setting [2], the IC50 was under 10 nM.

Consider `C[C@@H](Cn1cnnn1)Oc1cc(-c2ccc3ncn(-c4cc(F)ccc4C#N)c3n2)ncn1` [Example 305, 4-fluoro-2-[5-(6-{[(2S)-1-(1H-tetrazol-1-yl)propan-2-yl]oxy}pyrimidin-4-yl)-3H-imidazo[4,5-b]pyridin-3-yl]benzonitrile], for which, under setting [2], the IC50 was in the range of 10 to 100 nM.

With `C[C@@H](Cn1cnnn1)Oc1cc(-c2ccc3ncc(-c4nccc(N)c4C#N)n3n2)ccc1F` [compound 234], the IC50 under setting [2] is under 10 nM.

In the case of `CCOC(=O)c1ccc(C#N)c(-c2cnc3ccc(-c4ccc(F)c(O[C@@H](C)Cn5cnnn5)c4)nn23)c1` [compound 146], the IC50 under setting [1] is under 10 nM.

`COc1cc(F)cc(-c2cnc3ccc(-c4cc(N[C@@H](C)Cn5cnnn5)ccn4)nn23)c1C#N` [compound 481]: the IC50 under setting [1] was under 10 nM.
